# From patent US5525626A (priority 1989, dated 1996)
# Experiments:
# Assay in all cases: 3H-thymidine assay
# Format in all cases: cell-based
# CAKI-2 cells = conditions: Homo sapiens, CAKI-2
# In short: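 Cells were seeded in 24-well plates at 10^4 cells per well and grown about 48 hours until half-confluent. The medium was then replaced with medium containing the test substance. After two washes in ice-cold PBS, acid-insoluble 3H label was precipitated with 5% trichloroacetic acid for one hour at 4° C. Label was dissolved in 0.3M NaOH and counted, and thymidine incorporation was compared with untreated cells.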
# [1] = tested on: GV-1 prostate carcinoma cells
# [2] = tested on: Tp 410 N neuroblastoma cells; conditions: Homo sapiens, Neuroblastoma cell
# [3] = tested on: Tp 483 MG glioblastoma cells
# CAKI-1 cells = conditions: Homo sapiens, CAKI-1
# In short: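 CAKI-1 human tumor cells were seeded at 10^4 cells per well in 24-well plates and grown about 48 hours until half-confluent. The medium was then swapped for one containing the test substance. Cells were washed twice in ice-cold PBS, and macromolecular 3H-radioactivity was precipitated with 5% trichloroacetic acid for one hour at 4° C.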
# At T 20 = conditions: Mus musculus, AtT20
# In short: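 Proliferation of AtT20 tumor cells was assessed by 3H-thymidine incorporation. 10^4 cells per well were seeded in 24-well plates and grown about 48 hours to half-confluence, then given medium with the active substance. Cells were washed twice in ice-cold PBS, high-molecular-weight 3H-radioactivity was precipitated with 5% trichloroacetic acid for one hour at 4° C, solubilized in 0.3M NaOH and counted.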
# [4] = tested on: MCF-7 breast cancer cells; conditions: Homo sapiens, MCF7
# In short: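 Antiproliferative activity against human MCF-7 breast cancer cells was measured by 3H-thymidine incorporation. Cells (10^4 per well) were seeded in 24-well plates, grown about 48 hours to half-confluence, then given medium containing the test substance. After two ice-cold PBS washes, high-molecular-weight 3H-radioactivity was precipitated with 5% trichloroacetic acid for one hour at 4° C, solubilized in 0.3M NaOH and counted; incorporation was compared with untreated cells.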
# K-562 leukemic cells = conditions: Homo sapiens, K562
# In short: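 Antiproliferative activity against human K562 leukemia cells was measured by 3H-thymidine incorporation. Cells were seeded at 10^4 per well in 24-well plates and grown about 48 hours to half-confluence, then given medium containing the active substance. After two ice-cold PBS washes, macromolecular 3H was precipitated with 5% trichloroacetic acid for one hour at 4° C, dissolved in 0.3M NaOH and counted.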
# HCV cells = tested on: HCV cells
# [5] = 1 μM/ml, read-out: 3H-thymidine tracer (%) of control
# [6] = 2 μM/ml, read-out: 3H-thymidine tracer (%) of control
# [7] = 4 μM/ml, read-out: 3H-thymidine tracer (%) of control
# [8] = 8 μM/ml, read-out: 3H-thymidine tracer (%) of control
# [9] = 16 μM/ml, read-out: 3H-thymidine tracer (%) of control
# [10] = 25 μM/ml, read-out: 3H-thymidine tracer (%) of control
# [11] = 50 μM/ml, read-out: 3H-thymidine tracer (%) of control
# [12] = 100 μM/ml, read-out: 3H-thymidine tracer (%) of control
# [13] = 150 μM/ml, read-out: 3H-thymidine tracer (%) of control
# [14] = 500 μM/ml, read-out: 3H-thymidine tracer (%) of control
# [15] = Table 4, *: maximum usable dosage, no 50% inhibition, read-out: active substance concentration at which 3H-thymidine insertion was 50% inhibited
# [16] = 250 μM/ml, read-out: 3H-thymidine tracer (%) of control
# [17] = Table 4, read-out: active substance concentration at which 3H-thymidine insertion was 50% inhibited
# [18] = 1 μM/ml, read-out: 3H-thymidine insertion (%) of control
# [19] = 2 μM/ml, read-out: 3H-thymidine insertion (%) of control
# [20] = 4 μM/ml, read-out: 3H-thymidine insertion (%) of control
# [21] = 8 μM/ml, read-out: 3H-thymidine insertion (%) of control
# [22] = 16 μM/ml, read-out: 3H-thymidine insertion (%) of control
# [23] = 25 μM/ml, read-out: 3H-thymidine insertion (%) of control
# [24] = 50 μM/ml, read-out: 3H-thymidine insertion (%) of control
# [25] = 100 μM/ml, read-out: 3H-thymidine insertion (%) of control
# [26] = 250 μM/ml, read-out: 3H-thymidine insertion (%) of control
# [27] = 500 μM/ml, read-out: 3H-thymidine insertion (%) of control
compound,measurement,setting,value
"COc1cc2ccc(=O)oc2cc1O [Scopoletin, 6-methoxy-7-hydroxy-1,2-benzopyrone]",activity at 1 µM,CAKI-2 cells; [5],99%
same,activity at 2 µM,CAKI-2 cells; [6],96%
same,activity at 4 µM,CAKI-2 cells; [7],84%
same,activity at 8 µM,CAKI-2 cells; [8],80%
same,activity at 16 µM,CAKI-2 cells; [9],76%
same,activity at 25 µM,CAKI-2 cells; [10],71%
same,activity at 50 µM,CAKI-2 cells; [11],66%
same,activity at 100 µM,CAKI-2 cells; [12],61%
same,activity at 150 µM,CAKI-2 cells; [13],59%
same,activity at 500 µM,CAKI-2 cells; [14],53%
same,IC50,CAKI-2 cells; [15],> 500 µM
same,activity at 1 µM,[1]; [5],100%
same,activity at 2 µM,[1]; [6],98%
same,activity at 4 µM,[1]; [7],91%
same,activity at 8 µM,[1]; [8],88%
same,activity at 16 µM,[1]; [9],82%
same,activity at 25 µM,[1]; [10],78%
same,activity at 50 µM,[1]; [11],71%
same,activity at 100 µM,[1]; [12],63%
same,activity at 250 µM,[1]; [16],61%
same,activity at 500 µM,[1]; [14],51%
same,IC50,[1]; [17],500 µM
same,activity at 1 µM,[2]; [18],100%
same,activity at 2 µM,[2]; [19],98%
same,activity at 4 µM,[2]; [20],95%
same,activity at 8 µM,[2]; [21],87%
same,activity at 16 µM,[2]; [22],82%
same,activity at 25 µM,[2]; [23],74%
same,activity at 50 µM,[2]; [24],71%
same,activity at 100 µM,[2]; [25],65%
same,activity at 250 µM,[2]; [26],62%
same,activity at 500 µM,[2]; [27],54%
same,IC50,[2]; [17],500 µM
same,activity at 1 µM,[3]; [18],100%
same,activity at 2 µM,[3]; [19],95%
same,activity at 4 µM,[3]; [20],89%
same,activity at 8 µM,[3]; [21],86%
same,activity at 16 µM,[3]; [22],78%
same,activity at 25 µM,[3]; [23],72%
same,activity at 50 µM,[3]; [24],67%
same,activity at 100 µM,[3]; [25],63%
same,activity at 250 µM,[3]; [26],54%
same,activity at 500 µM,[3]; [27],50%
same,IC50,[3]; [17],500 µM
same,activity at 1 µM,CAKI-1 cells; [5],100%
same,activity at 2 µM,CAKI-1 cells; [6],98%
same,activity at 4 µM,CAKI-1 cells; [7],87%
same,activity at 8 µM,CAKI-1 cells; [8],81%
same,activity at 16 µM,CAKI-1 cells; [9],80%
same,activity at 25 µM,CAKI-1 cells; [10],73%
same,activity at 50 µM,CAKI-1 cells; [11],69%
same,activity at 100 µM,CAKI-1 cells; [12],67%
same,activity at 150 µM,CAKI-1 cells; [13],62%
same,activity at 500 µM,CAKI-1 cells; [14],55%
same,IC50,CAKI-1 cells; [15],> 500 µM
same,activity at 1 µM,At T 20; [5],98%
same,activity at 2 µM,At T 20; [6],94%
same,activity at 4 µM,At T 20; [7],89%
same,activity at 8 µM,At T 20; [8],84%
same,activity at 16 µM,At T 20; [9],76%
same,activity at 25 µM,At T 20; [10],68%
same,activity at 50 µM,At T 20; [11],62%
same,activity at 100 µM,At T 20; [12],57%
same,activity at 250 µM,At T 20; [16],49%
same,activity at 500 µM,At T 20; [14],43%
same,IC50,At T 20; [17],250 µM
same,activity at 1 µM,[4]; [5],100%
same,activity at 2 µM,[4]; [6],97%
same,activity at 4 µM,[4]; [7],94%
same,activity at 8 µM,[4]; [8],86%
same,activity at 16 µM,[4]; [9],81%
same,activity at 25 µM,[4]; [10],76%
same,activity at 50 µM,[4]; [11],73%
same,activity at 100 µM,[4]; [12],69%
same,activity at 250 µM,[4]; [16],62%
same,activity at 500 µM,[4]; [14],54%
same,IC50,[4]; [15],> 500 µM
same,activity at 1 µM,K-562 leukemic cells; [5],100%
same,activity at 2 µM,K-562 leukemic cells; [6],97%
same,activity at 4 µM,K-562 leukemic cells; [7],90%
same,activity at 8 µM,K-562 leukemic cells; [8],85%
same,activity at 16 µM,K-562 leukemic cells; [9],82%
same,activity at 25 µM,K-562 leukemic cells; [10],71%
same,activity at 50 µM,K-562 leukemic cells; [11],66%
same,activity at 100 µM,K-562 leukemic cells; [12],52%
same,activity at 250 µM,K-562 leukemic cells; [16],47%
same,activity at 500 µM,K-562 leukemic cells; [14],44%
same,IC50,K-562 leukemic cells; [17],175 µM
same,activity at 1 µM,HCV cells; [5],97%
same,activity at 2 µM,HCV cells; [6],90%
same,activity at 4 µM,HCV cells; [7],86%
same,activity at 8 µM,HCV cells; [8],81%
same,activity at 16 µM,HCV cells; [9],77%
same,activity at 25 µM,HCV cells; [10],69%
same,activity at 50 µM,HCV cells; [11],65%
same,activity at 250 µM,HCV cells; [16],60%
same,activity at 500 µM,HCV cells; [14],57%
same,IC50,HCV cells; [15],> 500 µM
